Measurements from US20240424134A1, “PEPTIDE HAVING INDEPENDENTLY STABILIZED HYDROPHOBIC ALPHA HELIX, PEPTIDE COMPLEX COMPRISING SAME AND USES THEREOF” (UIF (University Industry Foundation), Yonsei University, priority 2022, published 2024).
Non-standard residues stand in square brackets, D forms with d. No end group written: not given here. Aib = CC(C)(N)C(=O)O

Assay: CD (circular dichroism) spectroscopy of α-helix structure
Type: physicochemical
Experimental: To evaluate the structures of a linear plasmid DNA and peptides, CD spectra were analyzed using a Chirascan CD spectrometer (Applied Photophysics, UK). […] The final concentration of the linear plasmid DNA was 30 ng/μL. All the samples were dissolved in H2O. For the formation of the artificial chromosome, a mixture of the peptide and the DNA was incubated for 12 days or longer. Scanning was performed using a 2-mm path-length cuvette. Each scan was repeated three times and averaged. MRE (mean residue ellipticity) was calculated based on the number of amino acid residues.
CD (circular dichroism) spectroscopy was performed as follows.
The CD spectra were analyzed using a Chirascan CD spectrometer (Applied Photophysics, UK). […] All the samples were dissolved in H2O. Each scan was repeated three times using a 2-mm path-length cuvette and averaged. MRE (mean residue ellipticity) was calculated based on the number of amino acid residues.

[1] = Table 14, coil-rod-coil peptide complexes
[2] = Table 9, linear and cyclic αm-PEG10 peptide complexes, in H2O
[3] = Table 11, peptide complexes of Examples 37-97
[4] = Table 13, cyclic peptide complexes
[5] = Table 10, hydrophobic peptides of Examples 1-36

| [θ]222/[θ]208 [1] | [θ]222/[θ]208 [4] | Substance | also measured |
| --- | --- | --- | --- |
| 0.83 |  | (PEG8)AUAUAUAUAUAUAUA(PEG8)2 [Example 120] |  |
| 0.78 |  | (PEG8)2AUAUAUAUAUAUAUA(PEG8)2 [Example 124] |  |
|  |  | WAUAUAUAUAUAUAU(PEG2)5 [Example 49] | [θ]222/[θ]208 [2]: 1.05; θ222 nm/θ208 nm ratio [3]: 1.05 |
|  | 0.2 | WAUAUAUAUGHHHHHHHHHHGRGDRGDRGDG [Example 104] |  |
|  |  | RAUAUAUAUAUAUAUAUAUAUAGRGDRGDRGDRGDG [Example 67] | minimum at 222 and 208 nm in the spectra (Table 11): no minimum was observed |
|  |  | Example 45: peptide complex (Wαm-RGD, Wαm-GS), SEQ ID NO 45 (A[Aib]A[Aib]A[Aib]A[Aib]A[Aib]A[Aib]A[Aib]A[Aib]A[Aib]A[Aib]AGSGSGSGSG) | θ222 nm/θ208 nm ratio [3]: 1.09 |
|  |  | Example 43: peptide complex (Wαm-RGD, Wαm-GS), SEQ ID NO 43 (AXAXAXAXAXAXAXAXAXAXAGSGSG; SITE 2 2-aminoisobutyric acid; SITE 4 2-aminoisobutyric acid; SITE 6 2-aminoisobutyric acid; SITE 8 2-aminoisobutyric acid; SITE 10 2-aminoisobutyric acid; SITE 12 2-aminoisobutyric acid; SITE 14 2-aminoisobutyric acid; SITE 16 2-aminoisobutyric acid; SITE 18 2-aminoisobutyric acid; SITE 20 2-aminoisobutyric acid) | θ222 nm/θ208 nm ratio [3]: 1.15 |
|  | 0.65 | WAUAUAUAUAUAUGHHHHHHHHHHGRGDRGDRGDG [Example 106] |  |
|  | 0.71 | WAUAUAUAUAUAUAUGHHHHHHHHHHGRGDRGDRGDG [Example 107] |  |
|  | 1.06 | WAUAUAUAUAUAUAUAU(PEG2)5RGDRGD(PEG2)5 [Example 110] |  |
|  |  | RGDRGDAUAUAUAUAUAUAUAUAUAUARR [Example 73] | θ222 nm/θ208 nm ratio [3]: 1.1 |
|  | 0.83 | WAUAUAUAUAUAUAUAUGHHHHHHHHHHGRGDRGDRGDG [Example 108] |  |
| 1.06 |  | (PEG8)2AUAUAUAUAUAUAUAUAUAUA(PEG8) [Example 122] |  |
|  |  | RGDRGDRGDRGDAUAUAUAUAUAUAUAUAUAUARR [Example 75] | minimum at 222 and 208 nm in the spectra (Table 11): no minimum was observed |
|  | 0.95 | (PEG2)5RRRRRR(PEG2)5WAUAUAUAUAUAUAUAU [Example 111] |  |
|  | 0.89 | WAUAUAUAUAUAUAUAUAUGHHHHHHHHHHGRGDRGDRGDG [Example 109] |  |
|  |  | AUAUAUAUA [Example 2] | θ222 nm/θ208 nm ratio [5]: 0.72 |

| [θ]222/[θ]208 [1] | [θ]222/[θ]208 [4] | Substance | also measured |
| --- | --- | --- | --- |
| 1.15 |  | GSGAUAUAUAUAUAUAUAUAUAUAGSG [Example 116] |  |
|  | 1.21 | WAUAUAUAUAUAUAUAUAU(PEG2)5 [Example 103] |  |
| 1.07 |  | GSGSGAUAUAUAUAUAUAUAUAUAUAGSGSG [Example 117] |  |
|  | 0.95 | WAUAUAUAUAUAU(PEG2)5 [Example 100] | [θ]222/[θ]208 [2]: 0.95 |
|  |  | RGDRGDRGDRGDAUAUAUAUAUAUAUAUAUAUAR [Example 72] | minimum at 222 and 208 nm in the spectra (Table 11): no minimum was observed |
| 1.02 |  | GSGSGSGSGAUAUAUAUAUAUAUAUAUAUAGSGSGSGSG [Example 118] |  |
|  |  | WAUAUAUAUAUAUAUAU(PEG2)5 [Example 50] | [θ]222/[θ]208 [2]: 1.10; θ222 nm/θ208 nm ratio [3]: 1.10 |
|  |  | AUAUAUAUAUAUAUA [Example 8] | θ222 nm/θ208 nm ratio [5]: 1.13 |
| 1.2 |  | (PEG10)2AUAUAUAUAUAUAUAUAUAUA(PEG10)2 [Example 127] |  |
| 1.04 |  | (PEG8)AUAUAUAUAUAUAUAUAUAUA(PEG8)2 [Example 121] |  |
|  | 1.01 | WAUAUAUAUAUAUAU(PEG2)5 [Example 101] | [θ]222/[θ]208 [2]: 1.01 |
| 0.61 |  | (PEG8)AUAUAUAUA(PEG8)2 [Example 119] |  |
|  |  | WAUAUAUAU(PEG2)5 [Example 46] | θ222 nm/θ208 nm ratio [3]: 0.72 |
|  |  | WAUAUAUAUAUAUAUAUAU(PEG2)5 [Example 51] | θ222 nm/θ208 nm ratio [3]: 1.19 |
| 0.6 |  | (PEG8)2AUAUAUAUA(PEG8)2 [Example 123] |  |
| 1.18 |  | (PEG8)3AUAUAUAUAUAUAUAUAUAUA(PEG8)3 [Example 126] |  |
